Assay results from US20150376647A1, “DESIGNER PH SENSOR AS UNIVERSAL TRANSGENE CONTROLLER” (ETH ZURICH, priority 2013, published 2015).

System: protein kinase A (PKA)
Assay: PKA inhibition of pH sensor signaling in pDA62/pCK53-cotransfected HEK-293T
Assay type: cell-based, human
Conditions: 10 μM for 1 h, 2 h at pH 6.9, then pH 7.6, SEAP after 24 h
Description: PKA inhibition: 1.5×10^5 cells were pretreated with 10 μM H-89 (Sigma, cat. no. B1472) for 1 h, incubated for 2 h in cell culture medium adjusted to pH 6.9 and maintained for 24 h in cell culture medium adjusted to pH 7.6 before SEAP levels were assessed in the cell culture supernatant
SEAP: Production of human placental secreted alkaline phosphatase was quantified in cell culture supernatants (Schlatter S. et al., Gene 282, 19-31 (2002)) and mouse serum (Weber et. al., Nat. Biotech., 22, 1440-1444 (2004)) as described before.

SMILES: O=S(=O)(NCCNC/C=C/c1ccc(Br)cc1)c1cccc2cnccc12 [H-89]
- TDAG8-to-PCRE signaling (SEAP levels): interrupted
